The data set can be described thus: Water solubility: distilled water added to a weighed amount until a clear solution was obtained. In kind it is physicochemical. Conditions: for solubility: thermodynamic from solid, distilled water, weight in mg divided by volume of the clear solution in mL. On the procedure: Measurement of the water solubility of the test compounds is accomplished by using methods well known to those skilled in the art. Specifically, to a weighed amount of the test compound of the example compound Formula I (Ib) distilled water was added in small proportions until a clear solution was obtained. The total volume of the solution is measured. The water solubility is calculated by dividing the weight of the salt, in milligrams (mg), by the volume of the solution, in mL. […] The compound of Formula I (Ib) is therefore, at least 368 times more soluble in water than EPA itself. This is a clear indication of an unexpectedly high degree of bioavailability of the compositions of the invention. Highly water soluble medicinal preparations, when administered orally, result in efficient absorption from the gastrointestinal tract in to systemic circulation. Furthermore, water soluble preparations are especially suitable for parenteral administration.

Bounds are passed on as bounds.

In general, solubility refers to how much of the substance goes into solution per volume. The low end stands for a poorly soluble substance, the high end for a readily soluble substance. For `CC/C=C\C/C=C\C/C=C\C/C=C\C/C=C\CCCC(=O)O` [EPA, Eicosapentaenoic Acid, reference compound], the solubility was < 0.2 mg/mL.

Compound `CC/C=C\C/C=C\C/C=C\C/C=C\C/C=C\CCCC(=O)OCC1OC(O)(CO)C(O)C1O` (stereo not drawn) [Formula I (Ib)] registered a solubility of 68.6 mg/mL. For the same compound, the “times more soluble in water than EPA” value (ratio of water solubility versus EPA) is “at least 368 times”.
